Source: patent US6369268B1, “Diester amine adducts” (Ciba Specialty Chemicals Corporation, priority 1997, dated 2002)

What was measured:
Test in all cases: Agar diffusion test (microbiological test)
Assay type in all cases: cell-based
Details in all cases: 100 μl of a 1% solution in abs. ethanol; 48 h incubation at 37° C.
[1] = tested on: Staphylococcus aureus ATCC 9144
Experimental: (§1) Casein soybean flour peptone agar (Merck)
(§2) Casein soybean flour peptone broth (Merck)
Staphylococcus aureus ATCC 9144
(§3) Preparation of the Germ Suspensions
(§4) The test germs are cultivated overnight (about 18 h) at 37° C. in Caso-Broth (5 ml test tubes). The germ count of the overnight cultivation is determined by the spiralometer method and must be between 10^8-10^9 KBE/ml.
(§5) The culture is diluted to about 10^7 KBE/ml with 0.85% NaCl solution, pH 7.2.
(§6) Petri dishes are filled with about 18 ml of sterile nutrient agar which is allowed to solidify.
(§7) 3.5 ml of the germ dilution in 0.85% NaCl are pipetted into 500 ml of still liquid agar which is cooled in a water bath to 47° C. and homogenised.
(§8) 6 ml of the germ-infested agar are evenly distributed on the solidified ground layer. After a drying and storage time of about 24 hours at 4° C. the dishes are ready for the test.
(§9) Drop Amount 100 μl of a 1% solution of the tetraester of formula (104) in abs. ethanol are pipetted into the centre of the dish and are dried for about 30 minutes at room temperature (the substances run into zones of about 20-30 mm).
(§10) Results of the Agar Diffusion Test
(§11) After a 48 h incubation of the agar dishes at 37° C., the growth of the […] in the drop zone is assessed.

[2] = tested on: Corynebacterium xerosis ATCC 373
Experimental: as §1, §2
Corynebacterium xerosis ATCC 373
as §3, §4, §5, §6, §7, §8, §9, §10, §11

[3] = tested on: Escherichia coli NCTC 8196
Experimental: as §1, §2
Escherichia coli NCTC 8196
as §3, §4, §5, §6, §7, §8, §9, §10, §11

`CCCCC(CC)COC(=O)CC(NCCNC(CC(=O)OCC(CC)CCCC)C(=O)OCC(CC)CCCC)C(=O)OCC(CC)CCCC` (mixture of isomers) [ethylenediaminedisuccinic acid tetra(isooctyl)ester (isomer mixture), [S,S]-/[R,R]-/[R,S]-Ethylenediaminedisuccinic acid tetraisooctyl ester (isomer mixture)] was tested, and the “growth in the drop zone, Staphylococcus aureus ATCC 9144” value [1] was “no inhibition”, the “growth in the drop zone, Corynebacterium xerosis ATCC 373” value [2] was “inhibition” and the “growth in the drop zone, Escherichia coli NCTC 8196” value [3] was “no inhibition”.

With `CCCCC(CC)COC(=O)C[C@H](NCCN[C@@H](CC(=O)OCC(CC)CCCC)C(=O)OCC(CC)CCCC)C(=O)OCC(CC)CCCC` (stereo partly drawn) [[S,S]-Ethylenediaminedisuccinic acid tetraisooctyl ester] the “growth in the drop zone, Staphylococcus aureus ATCC 9144” value [1] was “no inhibition”, the “growth in the drop zone, Corynebacterium xerosis ATCC 373” value [2] was “inhibition” and the “growth in the drop zone, Escherichia coli NCTC 8196” value [3] was “no inhibition”.
